What was measured:
mTORC1 [1] = experiment: Endosome isolation and in vitro mTORC1 kinase activity assay toward S6K1; format: biochemical, human; details: cells pre-treated 2 hours with 1 μM inhibitor; day 3
Naïve CD4 T cells [2] = experiment: Percentage of live cells (Annexin V negative) of activated naïve CD4 T cells with increasing inhibitor doses; format: cell-based, human; details: for toxicity of doses used for lysosome inhibition: chloroquine 20 μM, Bafilomycin A1 10 nM
Experimental: FIGS. 2A-2H. Naïve CD4 T cells from old adults lose lysosomal function but maintain mTORC1 activity after activation on day 5. (FIG. 2A and FIG. 2B) Naïve CD4 T cells from young and old individuals were activated with anti-CD3/anti-CD28 beads for 5 days followed by DQBSA treatments for 6 hours. Fluorescence of cleaved DQ-BSA was analyzed by flow cytometry to determine lysosome activities (FIG. 2A). Phospho-S6K1 (Thr389) protein expression (right) was determined by Western blotting (FIG. 2B). (FIG. 2C) Naïve CD4 T cells were activated for 5 days in the presence of increasing doses of chloroquine (CQ), bafilomycin A1 (BafA1) or JPH203. The percentage of live cells was determined as the frequency of Annexin V negative population. Mean+SD of four experiments. (FIGS. 2D-2G) Naïve CD4 T cells were activated for 5 days with the last 2-day culture with vehicle, chloroquine (CQ) or bafilomycin A1 (BafA1). Alternatively, cells were transfected with control or TFEB siRNA and activated for 5 days. (FIG. 2D) Lysosomal activities were determined as in (FIG. 2A). (FIG. 2E) mTORC1 activity was determined as in (FIG. 2B). (FIG. 2F) TFEB protein silencing were confirmed by Western blotting on day 5 after activation. (FIG. 2G) AKT phosphorylation was determined by Western blotting on day 5 after activation. **p<0.01; NS, not significant. (FIG. 2H) Naïve CD4 T cells from three old individuals were activated and treated with CQ as in (FIG. 2D). SLC7A5 and c-MYC protein expression were determined. Comparison by two-tailed paired t test. *p<0.05, **p<0.01; NS, not significant.
Isolated human naïve CD4 T cells were activated with Dynabeads Human T-Activator CD3/CD28 (11132D, Thermo Fisher Scientific) in RPMI 1640 (Sigma) supplemented with 10% fetal bovine serum (FBS) and 100 U/mL penicillin and streptomycin (Thermo Fisher Scientific). Mouse T cells were activated in plates coated with 8 μg/mL anti-CD3 Ab (16-0032-82, eBioscience) and 8 μg/mL anti-CD28 Ab (16-0281-82, eBioscience) in culture medium supplemented with 10 ng/ml IL-2 (21212, Peprotech). […]

mTORC1 [3] = format: cell-based, human; details: for S6K1 phosphorylation (mTORC1 activity) under lysosome inhibition: young individuals, day 5, last 2 days with inhibitor
Naïve CD4 T cells [4] = experiment: DQ-BSA lysosomal activity assay in activated naïve CD4 T cells; format: cell-based, human
Experimental: Cells were treated with 5 μg/mL of DQ-BSA (D12050, Thermo Fisher Scientific) diluted in prewarmed medium and incubated at 37° ° C. for 6 hours. Cells were then briefly washed once with ice-cold PBS containing 2% FBS and kept on ice. Fluorescence of cleaved BSA-DQ was analyzed by flow cytometry.

[5] = system: lysosomal cathepsin genes (CTSB, CTSD, CTSH and CTSS); experiment: Lysosomal cathepsin gene expression by qRT-PCR; format: cell-based, human
Experimental: FIGS. 6A-6F. Sustained activation of late endosomal mTORC1 suppresses lysosomal activities in naïve CD4 T cell responses. (FIGS. 6A-6F) Naïve CD4 T cells from young (Y) and old (O) individuals were activated for 5 days. Indicated inhibitor or vehicle control was added for the last 2 days of culture (FIGS. 6A-6B and FIGS. 6E-6F). Alternatively, cells were transfected with control or VPS39 siRNA and then activated with anti-CD3/anti-CD28 beads for 5 days (FIGS. 6C-6D). (FIG. 6A, FIG. 6C, FIG. 6E, and FIG. 6F) Lysosomal cathepsins expressions were determined by qRT-PCR (left); results are normalized to control samples using 18S rRNA as internal control; mean+SD of four experiments; comparison by two-tailed paired t-test. Lysosomal activities were determined by flow cytometry-based analysis of cells treated with 5 μg/mL of DQ-BSA for 6 hours. Results are shown as representative histograms (middle) and cumulative data from four experiments (right, two-tailed paired t-test). The gray histogram represents DQ-BSA free samples. […]
Total RNA was isolated using the RNeasy Plus Mini Kit (74134, QIAGEN) and converted to cDNA using the SuperScript VILO cDNA Synthesis Kit (11754, Invitrogen). Quantitative RT-PCR was performed on the ABI 7900HT system (Applied Biosystems) using Power SYBR Green PCR Master Mix (4368706, Thermo Fisher Scientific), according to the manufacturer's instructions.

PD-1 = format: cell-based, human; details: T cells from old adults; day 5
[6] = young individuals, day 5, last 2 days with inhibitor
[7] = CQ and JPH203-cotreated young cells vs CQ alone
[8] = day 5-activated T cells from old adults

Question: `Cl.Cl.NC1(c2ccc(-c3nc4ccn5c(=O)[nH]nc5c4cc3-c3ccccc3)cc2)CCC1` [AKT inhibitor, MK-2206 2HCl] was tested. Which “mTORC1 kinase activity of endosome isolates toward the substrate S6K1” value (mTORC1 [1]) did it give?
Answer: not seen

Question: With `CO/C1=C\C(C)=C\[C@@H](C)[C@@H](O)[C@@H](C)C/C(C)=C/C=C/[C@H](OC)[C@@H]([C@@H](C)[C@@H](O)[C@H](C)[C@@]2(O)C[C@@H](O)[C@H](C)[C@@H](C(C)C)O2)OC1=O` [Bafilomycin A1] as the molecule, how does the “toxicity of doses used for lysosome inhibition” value (Naïve CD4 T cells [2]) read?
Answer: nontoxic

Question: And the “S6K1 phosphorylation (mTORC1 activity) under lysosome inhibition” value (mTORC1 [3])?
Answer: neither reduced S6K1

Question: What about the lysosomal activities (Naïve CD4 T cells [4]; [6]) of the same molecule?
Answer: reduced lysosomal activities

Question: For `Nc1cc(COc2c(Cl)cc(C[C@H](N)C(=O)O)cc2Cl)c2oc(-c3ccccc3)nc2c1` [JPH203], which “cytotoxicity (percentage of live cells, Annexin V negative)” value (Naïve CD4 T cells [2]; 5 μM, titration experiments, activated naïve CD4 T cells) is on record?
Answer: not cytotoxic

Question: And the “inhibition of mTORC1 activity” value (mTORC1 [3]; 5 μM, phosphorylation of S6RP, titration experiments)?
Answer: about 50%

Question: And the “mTORC1 activity on day 3” value (mTORC1 [3]; day 3 after activation, young and old cells, 5 μM)?
Answer: reduced mTORC1 activity in both young and old cells

Question: And the “excess mTORC1 activity on day 5 in old activated T cells” value (mTORC1 [3]; day 5, old adults, inhibitor for last 2 days, 5 μM)?
Answer: sensitive to SLC7A5 inhibition

Question: What about the lysosomal activities (Naïve CD4 T cells [4]; [7]) of the same molecule?
Answer: increased

Question: What about the lysosomal cathepsins [5, 7] of the same molecule?
Answer: increased

Question: For `CCC(=O)N1CCN(c2ccc(-n3c(=O)ccc4cnc5ccc(-c6cnc7ccccc7c6)cc5c43)cc2C(F)(F)F)CC1` [Torin 1], which “cell surface protein expression of PD-1” value (PD-1) is on record?
Answer: reduced cell surface protein expression

Question: What about the “transcripts of PD-1” value (PD-1) of the same molecule?
Answer: without effects on transcripts

Question: What about the lysosomal proteolytic activities (Naïve CD4 T cells [4]; [8]) of the same molecule?
Answer: partially restored

Question: And the “TFEB-dependent transcription of lysosomal cathepsin genes” value [5, 8]?
Answer: partially restored

Question: Which results are given for `CCN(CC)CCCC(C)Nc1ccnc2cc(Cl)ccc12` (centres unmarked) [chloroquine, Chloroquine]?
Answer: toxicity of doses used for lysosome inhibition (Naïve CD4 T cells [2]): nontoxic; S6K1 phosphorylation (mTORC1 activity) under lysosome inhibition (mTORC1 [3]): neither reduced S6K1; lysosomal activities (Naïve CD4 T cells [4]; [6]): reduced lysosomal activities

— patent publication US20240197874A1, “MATERIALS AND METHODS FOR IMPROVING EFFICACY OF ADOPTIVE IMMUNE CELL THERAPY” (priority 2021, published 2024)
